Source: publication PMC12042115 (mLife, 2025)
≈ marks a conversion by molar mass, not a printed value. Read-outs that look alike come from different tables or passages of the source.

Legend:
[1] = tested on: GH189 (clpP1‐KD); assay: microbe, parasite or virus in culture; type: cell-based, M. bovis BCG; details: for MIC: Mycobacterium tuberculosis variant bovis BCG
[2] = target: Mtb ClpP1P2 (Mycobacterium tuberculosis, UniProt P9WPC3+P9WPC5); assay: Mtb ClpP1P2 peptidase assay (library screening and IC50 determination); type: biochemical
Chain of Mtb ClpP1P2 (P9WPC3 16-214, one chain of several): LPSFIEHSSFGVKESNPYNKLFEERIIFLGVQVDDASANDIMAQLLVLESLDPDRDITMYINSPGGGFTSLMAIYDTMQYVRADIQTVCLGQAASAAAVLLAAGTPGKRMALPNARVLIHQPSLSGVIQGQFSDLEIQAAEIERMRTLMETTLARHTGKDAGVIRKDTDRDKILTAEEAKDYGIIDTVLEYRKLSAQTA

[3] = tested on: M. tuberculosis H37Rv; assay: MIC against Mtb H37Rv; type: cell-based, Mycobacterium tuberculosis; details: for MIC90: Mycobacterium tuberculosis, H37RV
[4] = read-out: MIC (µg/ml) when clpP1‐KD induced
[5] = read-out: MIC (µg/ml) when no clpP1‐KD
[6] = Figure S4, highest concentration 100 µM, read-out: concentration inhibiting 50% of the peptidase activity
[7] = Figure 2B, neat/synthesized compounds, read-out: ClpP1P2 IC50

Row | Compound | MIC [1, 4] | MIC [1, 5] | further results
1 | CC[C@H]1OC(=O)[C@H](C)[C@@H](O[C@H]2C[C@@](C)(OC)[C@@H](O)[C@H](C)O2)[C@H](C)[C@@H](O[C@@H]2O[C@H](C)C[C@H](N(C)C)[C@H]2O)[C@](C)(O)C[C@@H](C)CN(C)[C@H](C)[C@@H](O)[C@]1(C)O [Azithromycin] | 0.46 µg/mL (≈ 0.614 µM) | 0.5 µg/mL (≈ 0.668 µM) | 
2 | COc1nc2ccc(Br)cc2cc1[C@@H](c1ccccc1)[C@@](O)(CCN(C)C)c1cccc2ccccc12 [Bedaquiline] | 0.06 µg/mL (≈ 0.108 µM) | 0.06 µg/mL (≈ 0.108 µM) | 
3 | CC[C@H]1OC(=O)[C@H](C)[C@@H](O[C@H]2C[C@@](C)(OC)[C@@H](O)[C@H](C)O2)[C@H](C)[C@@H](O[C@@H]2O[C@H](C)C[C@H](N(C)C)[C@H]2O)[C@](C)(OC)C[C@@H](C)C(=O)[C@H](C)[C@@H](O)[C@]1(C)O [Clarithromycin] | 0.1 µg/mL (≈ 0.134 µM) | 0.11 µg/mL (≈ 0.147 µM) | 
4 | N[C@@H]1CON=C1O [D‐Cycloserine] | 9.3 µg/mL (≈ 91.1 µM) | 11 µg/mL (≈ 108 µM) | 
5 | CC[C@@H](CO)NCCN[C@@H](CC)CO [Ethambutol] | 0.28 µg/mL (≈ 1.37 µM) | 0.62 µg/mL (≈ 3.03 µM) | downshift in the MIC against GH189 on clpP1‐KD [1]: > 2 fold
6 | CCc1cc(C(N)=S)ccn1 [Ethionamide] | 6.4 µg/mL (≈ 38.5 µM) | 46 µg/mL (≈ 277 µM) | downshift in the MIC against GH189 on clpP1‐KD [1]: > 2 fold; IC50 [2, 6]: > 100 µM
7 | O=C(Oc1ccccc1)c1ccc(N2CCOCC2)c([N+](=O)[O-])c1 [GDI‐5756] |  |  | MIC shift against GH189 on ATc induction [1]: marginally shifted down; inhibition of Mtb whole cell at 100 µM [3]: Neither analog could inhibit; MIC90 [3]: > 100 µM; inhibition of ClpP1P2 peptidase at 100 µM [2]: Neither analog could inhibit; IC50 [2, 7]: > 100 µM
8 | O=C(Nc1ccc(Cl)cc1)c1ccc(N2CCOCC2)c([N+](=O)[O-])c1 [GDI‐5757] |  |  | MIC shift against GH189 on ATc induction [1]: remained inactive; inhibition of Mtb whole cell at 100 µM [3]: Neither analog could inhibit; MIC90 [3]: > 100 µM; inhibition of ClpP1P2 peptidase at 100 µM [2]: Neither analog could inhibit; IC50 [2, 7]: > 100 µM
9 | NNC(=O)c1ccncc1 [Isoniazid] | 0.057 µg/mL (≈ 0.416 µM) | 0.066 µg/mL (≈ 0.481 µM) | IC50 [2, 6]: > 100 µM
10 | CC(=O)NC[C@H]1CN(c2ccc(N3CCOCC3)c(F)c2)C(=O)O1 [Linezolid] | 0.97 µg/mL (≈ 2.88 µM) | 1 µg/mL (≈ 2.96 µM) | 
11 | C[C@@H](O)[C@H]1C(=O)N2C(C(=O)O)=C(S[C@@H]3CN[C@H](C(=O)N(C)C)C3)[C@H](C)[C@H]12 [Meropenem] | 1.6 µg/mL (≈ 4.17 µM) | 5.3 µg/mL (≈ 13.8 µM) | downshift in the MIC against GH189 on clpP1‐KD [1]: > 2 fold; IC50 [2, 6]: > 100 µM
12 | O=[N+]([O-])c1cn2c(n1)OC[C@@H](OCc1ccc(OC(F)(F)F)cc1)C2 [Pretomanid] | 0.06 µg/mL (≈ 0.167 µM) | 0.12 µg/mL (≈ 0.334 µM) | 
13 | NC(=O)c1cnccn1 [Pyrazinamide, reference compound] |  |  | IC50 [2, 6]: > 100 µM
14 | CO[C@H]1/C=C/O[C@@]2(C)Oc3c(C)c(O)c4c(O)c(c(/C=N/N5CCN(C)CC5)c(O)c4c3C2=O)NC(=O)/C(C)=C\C=C\[C@H](C)[C@H](O)[C@@H](C)[C@@H](O)[C@@H](C)[C@H](OC(C)=O)[C@@H]1C [Rifampicin] | 0.01 µg/mL (≈ 0.0122 µM) | 0.01 µg/mL (≈ 0.0122 µM) | 
15 | CO[C@H]1/C=C/O[C@@]2(C)Oc3c(C)c(O)c4c(O)c(cc(O)c4c3C2=O)NC(=O)/C(C)=C\C=C\[C@H](C)[C@H](O)[C@@H](C)[C@@H](O)[C@@H](C)[C@H](OC(C)=O)[C@@H]1C [Rifamycin, reference compound] |  |  | IC50 [2, 6]: > 100 µM
16 | O=C(Oc1ccc(Cl)cc1)c1ccc(COC(=O)c2cnccn2)cc1 [SAM002946897] |  |  | IC50 ([2]; library stocks, concentration–response, read-out: IC50): 3.23 µM
17 | [H]/N=C(/N)N[C@H]1[C@H](O)[C@@H](O)[C@H](O[C@@H]2O[C@@H](C)[C@](O)(C=O)[C@H]2O[C@@H]2O[C@@H](CO)[C@H](O)[C@@H](O)[C@@H]2NC)[C@@H](N/C(N)=N\[H])[C@@H]1O [Streptomycin] | 0.23 µg/mL (≈ 0.395 µM) | 0.24 µg/mL (≈ 0.413 µM) | 
18 | Capreomycin |  |  | MIC (µg/ml) when clpP1‐KD induced [1]: 0.14 µg/mL; MIC (µg/ml) when no clpP1‐KD [1]: 0.25 µg/mL
